Two compounds from PMC4317228 (Pharmacology Research & Perspectives, 2014) can be followed below.

Assay [1] deals with T1, human 5HT2A receptor (h5HT2A) (Homo sapiens, UniProt P28223).
T1 construct: gene HTR2A
Kind of assay: [3H]ketanserin displacement.

Assay [2] concerns the target T2, human metabotropic glutamate type 2 receptor (hmGlu2) (Homo sapiens, UniProt Q14416).
T2 construct: gene GRM2; full-length receptor, stably expressed in CHO cells (membranes)
Kind of assay: [3H]DCG-IV saturation binding, hmGlu2 CHO membranes.

T1 sequence (P28223 whole entry): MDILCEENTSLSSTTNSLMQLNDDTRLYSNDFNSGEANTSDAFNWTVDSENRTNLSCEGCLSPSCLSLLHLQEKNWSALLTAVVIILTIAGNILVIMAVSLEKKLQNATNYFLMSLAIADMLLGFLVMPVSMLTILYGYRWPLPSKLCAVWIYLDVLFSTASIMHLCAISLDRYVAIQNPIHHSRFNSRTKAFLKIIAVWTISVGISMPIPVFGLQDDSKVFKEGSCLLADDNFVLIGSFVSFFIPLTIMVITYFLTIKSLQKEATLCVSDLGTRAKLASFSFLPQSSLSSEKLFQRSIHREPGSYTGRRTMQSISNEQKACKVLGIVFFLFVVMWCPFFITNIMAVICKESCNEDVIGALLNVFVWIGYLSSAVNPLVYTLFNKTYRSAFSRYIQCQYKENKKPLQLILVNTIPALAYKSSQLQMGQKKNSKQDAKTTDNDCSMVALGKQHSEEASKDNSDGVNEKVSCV
T2 sequence (Q14416 19-872): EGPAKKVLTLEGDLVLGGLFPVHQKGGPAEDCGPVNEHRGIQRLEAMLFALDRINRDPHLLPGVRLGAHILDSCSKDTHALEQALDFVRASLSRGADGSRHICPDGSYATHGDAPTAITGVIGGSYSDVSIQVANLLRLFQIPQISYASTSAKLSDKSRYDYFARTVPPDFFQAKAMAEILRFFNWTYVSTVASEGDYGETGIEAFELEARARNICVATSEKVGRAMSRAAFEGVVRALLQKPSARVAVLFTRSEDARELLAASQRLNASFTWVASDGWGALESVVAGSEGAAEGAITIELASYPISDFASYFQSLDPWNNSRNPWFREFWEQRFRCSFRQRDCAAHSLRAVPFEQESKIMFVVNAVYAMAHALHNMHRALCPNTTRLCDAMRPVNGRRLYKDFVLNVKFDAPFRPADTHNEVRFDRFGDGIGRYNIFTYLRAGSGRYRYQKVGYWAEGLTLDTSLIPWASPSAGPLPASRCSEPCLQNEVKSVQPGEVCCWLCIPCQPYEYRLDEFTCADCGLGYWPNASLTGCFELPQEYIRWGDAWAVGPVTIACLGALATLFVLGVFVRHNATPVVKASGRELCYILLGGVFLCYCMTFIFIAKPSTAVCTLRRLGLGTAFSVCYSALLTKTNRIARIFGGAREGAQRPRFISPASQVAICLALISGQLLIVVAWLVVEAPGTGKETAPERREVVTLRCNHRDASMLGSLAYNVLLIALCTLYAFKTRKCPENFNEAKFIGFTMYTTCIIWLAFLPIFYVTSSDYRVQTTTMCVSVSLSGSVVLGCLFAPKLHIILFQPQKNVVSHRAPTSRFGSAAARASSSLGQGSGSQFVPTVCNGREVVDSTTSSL

Regarding `CCCCn1ccc(N2CCC(c3ccc(O)cc3)CC2)c(Cl)c1=O` [JNJ-42159052], the IC50 (commonly the concentration that gives 50% inhibition) in assay [1] came to 0.102 µM.

With `N[C@H](C(=O)O)C1[C@@H](C(=O)O)[C@@H]1C(=O)O` (some centres unmarked) [DCG-IV], in assay [2], binding was characterised by a dissociation constant (Kd) of 0.2 µM. In other words, the sub-micromolar range.
